# According to patent US10023557B2 (LifeSci Pharmaceuticals, Inc., priority 2015, dated 2018):
# Target: human plasma kallikrein (Homo sapiens (Human), UniProt P03952)
# Assay: In vitro enzyme inhibition of human plasma kallikrein (PFR-AMC cleavage)
# Format: biochemical
# Details: Pro-Phe-Arg-AMC substrate, 37° C., read-out: hPK IC50
# Summary of the method: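 Human plasma kallikrein and compound, diluted in 50 mM Tris-HCl pH 7.5, 150 mM NaCl, 0.01% Triton X-100, preincubated 5 min at 37 °C before PFR-AMC was added.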
# Sequence of human plasma kallikrein (P03952 391-638): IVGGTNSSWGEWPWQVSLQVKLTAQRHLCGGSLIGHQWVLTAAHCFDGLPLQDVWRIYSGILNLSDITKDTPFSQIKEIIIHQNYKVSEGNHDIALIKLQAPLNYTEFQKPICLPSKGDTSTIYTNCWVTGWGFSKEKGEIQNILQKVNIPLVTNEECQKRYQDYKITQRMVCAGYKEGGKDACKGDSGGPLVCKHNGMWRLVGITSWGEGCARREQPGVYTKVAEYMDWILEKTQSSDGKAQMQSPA
# Sequence of human plasma kallikrein (P03952 20-390 partner): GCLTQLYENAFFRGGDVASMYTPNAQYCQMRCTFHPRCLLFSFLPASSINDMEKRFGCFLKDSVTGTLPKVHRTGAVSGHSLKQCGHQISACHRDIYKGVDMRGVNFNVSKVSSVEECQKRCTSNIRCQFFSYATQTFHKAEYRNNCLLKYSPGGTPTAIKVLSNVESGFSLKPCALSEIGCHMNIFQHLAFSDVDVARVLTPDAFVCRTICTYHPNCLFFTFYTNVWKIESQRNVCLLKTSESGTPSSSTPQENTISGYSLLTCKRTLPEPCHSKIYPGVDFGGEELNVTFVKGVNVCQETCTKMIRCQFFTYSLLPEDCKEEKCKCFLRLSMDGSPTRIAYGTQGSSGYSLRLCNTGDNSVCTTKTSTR
molecule,measurement,value
"COC(c1ccc2ncc(Cl)cc2c1)c1cc(C(=O)NCc2c(C)cc(N)nc2C)ccn1 (stereo not drawn) [Example 296, N-((6-amino-2,4-dimethylpyridin-3-yl)methyl)-2-((3-chloroquinolin-6-yl)(methoxy)methyl)isonicotinamide]",IC50,< 0.1 µM
"Nc1cnc2ccc(Cc3cc(C(=O)NCc4cc5c(Cl)c[nH]c5cc4F)ccn3)cc2c1 [Example 297, 2-((3-aminoquinolin-6-yl)methyl)-N-((3-chloro-6-fluoro-1H-indol-5-yl)methyl)isonicotinamide]",IC50,0.1 to 1 µM
"Nc1cnc2ccc(Cc3cc(C(=O)NCc4ccc5c(N)nccc5c4)ccn3)cc2c1 [Example 298, N-((1-aminoisoquinolin-6-yl)methyl)-2-((3-aminoquinolin-6-yl)methyl)isonicotinamide]",IC50,0.1 to 1 µM
"Nc1cnc2ccc(Cc3cc(C(=O)NCc4n[nH]c5ccc(Cl)cc45)ccn3)cc2c1 [Example 299, 2-((3-aminoquinolin-6-yl)methyl)-N-((5-chloro-1H-indazol-3-yl)methyl)isonicotinamide]",IC50,1 to 10 µM
"Nc1cnc2ccc(Cc3cc(C(=O)NCc4cnc5[nH]cc(Cl)c5c4)ccn3)cc2c1 [Example 300, 2-((3-aminoquinolin-6-yl)methyl)-N-((3-chloro-1H-pyrrolo[2,3-b]pyridin-5-yl)methyl)isonicotinamide]",IC50,1 to 10 µM
"Nc1cnc2ccc(Cc3cc(C(=O)NCc4ccc5[nH]cc(Cl)c5c4F)ccn3)cc2c1 [Example 301, 2-((3-aminoquinolin-6-yl)methyl)-N-((3-chloro-4-fluoro-1H-indol-5-yl)methyl)isonicotinamide]",IC50,0.1 to 1 µM
"O=C(NCc1cc2c(Cl)c[nH]c2cc1F)c1ccnc(Cc2ccc3ncc(N4CCCCC4)cc3c2)c1 [Example 302, N-((3-chloro-6-fluoro-1H-indol-5-yl)methyl)-2-((3-(piperidin-1-yl)quinolin-6-yl)methyl)isonicotinamide]",IC50,1 to 10 µM
"Nc1nccc2cc(CNC(=O)c3ccnc(Cc4ccc5ncc(N6CCCCC6)cc5c4)c3)ccc12 [Example 303, N-((1-aminoisoquinolin-6-yl)methyl)-2-((3-(piperidin-1-yl)quinolin-6-yl)methyl)isonicotinamide]",IC50,1 to 10 µM
"O=C(NCc1ccc2[nH]cc(Cl)c2c1F)c1ccnc(Cc2ccc3ncc(N4CCCCC4)cc3c2)c1 [Example 305, N-((3-chloro-4-fluoro-1H-indol-5-yl)methyl)-2-((3-(piperidin-1-yl)quinolin-6-yl)methyl)isonicotinamide]",IC50,> 10 µM
"O=C(NCc1cnc2[nH]cc(Cl)c2c1)c1ccnc(Cc2ccc3ncc(N4CCCCC4)cc3c2)c1 [Example 306, N-((3-chloro-1H-pyrrolo[2,3-b]pyridin-5-yl)methyl)-2-((3-(piperidin-1-yl)quinolin-6-yl)methyl)isonicotinamide]",IC50,1 to 10 µM
"O=C(NCc1cc2c(Cl)c[nH]c2cc1F)c1ccnc(Cc2ccc3ncc(N4CCCC4)cc3c2)c1 [Example 307, N-((3-chloro-6-fluoro-1H-indol-5-yl)methyl)-2-((3-(pyrrolidin-1-yl)quinolin-6-yl)methyl)isonicotinamide]",IC50,0.1 to 1 µM
"O=C(NCc1n[nH]c2ccc(Cl)cc12)c1ccnc(Cc2ccc3ncc(N4CCCC4)cc3c2)c1 [Example 309, N-((5-chloro-1H-indazol-3-yl)methyl)-2-((3-(pyrrolidin-1-yl)quinolin-6-yl)methyl)isonicotinamide]",IC50,0.1 to 1 µM
"O=C(NCc1cnc2[nH]cc(Cl)c2c1)c1ccnc(Cc2ccc3ncc(N4CCCC4)cc3c2)c1 [Example 310, N-((3-chloro-1H-pyrrolo[2,3-b]pyridin-5-yl)methyl)-2-((3-(pyrrolidin-1-yl)quinolin-6-yl)methyl)isonicotinamide]",IC50,0.1 to 1 µM
"O=C(NCc1ccc2[nH]cc(Cl)c2c1F)c1ccnc(Cc2ccc3ncc(N4CCCC4)cc3c2)c1 [Example 311, N-((3-chloro-4-fluoro-1H-indol-5-yl)methyl)-2-((3-(pyrrolidin-1-yl)quinolin-6-yl)methyl)isonicotinamide]",IC50,0.1 to 1 µM
"O=C(NCc1n[nH]c2ccc(Cl)cc12)c1ccnc(Cc2ccc3ncc(N4CCNCC4)cc3c2)c1 [Example 312, N-((5-chloro-1H-indazol-3-yl)methyl)-2-((3-(piperazin-1-yl)quinolin-6-yl)methyl)isonicotinamide]",IC50,1 to 10 µM
"O=C(NCc1cc2c(Cl)c[nH]c2cc1F)c1ccnc(Cc2ccc3ncc(N4CCNCC4)cc3c2)c1 [Example 313, N-((3-chloro-6-fluoro-1H-indol-5-yl)methyl)-2-((3-(piperazin-1-yl)quinolin-6-yl)methyl)isonicotinamide]",IC50,1 to 10 µM
"Cc1cnc2c(C(C)(C)O)cc(Cc3cc(C(=O)NCc4cc5c(Cl)c[nH]c5cc4F)ccn3)cc2c1 [Example 314, N-((3-chloro-6-fluoro-1H-indol-5-yl)methyl)-2-((8-(2-hydroxypropan-2-yl)-3-methylquinolin-6-yl)methyl)isonicotinamide]",IC50,< 0.1 µM
"Cc1cnc2c(C(C)(C)O)cc(Cc3cc(C(=O)NCc4ccc5[nH]cc(Cl)c5c4F)ccn3)cc2c1 [Example 315, N-((3-chloro-4-fluoro-1H-indol-5-yl)methyl)-2-((8-(2-hydroxypropan-2-yl)-3-methylquinolin-6-yl)methyl)isonicotinamide]",IC50,< 0.1 µM
"Cc1cnc2c(C(C)(C)O)cc(Cc3cc(C(=O)NCc4cnc5[nH]cc(Cl)c5c4)ccn3)cc2c1 [Example 316, N-((3-chloro-1H-pyrrolo[2,3-b]pyridin-5-yl)methyl)-2-((8-(2-hydroxypropan-2-yl)-3-methylquinolin-6-yl)methyl)isonicotinamide]",IC50,< 0.1 µM
"Cc1cnc2c(C(C)(C)O)cc(Cc3cc(C(=O)NCc4n[nH]c5ccc(Cl)cc45)ccn3)cc2c1 [Example 317, N-((5-chloro-1H-indazol-3-yl)methyl)-2-((8-(2-hydroxypropan-2-yl)-3-methylquinolin-6-yl)methyl)isonicotinamide]",IC50,< 0.1 µM
"Cc1cnc2c(C(C)(C)O)cc(Cc3cc(C(=O)NCc4c(C)cc(N)nc4C)ccn3)cc2c1 [Example 318, N-((6-amino-2,4-dimethylpyridin-3-yl)methyl)-2-((8-(2-hydroxypropan-2-yl)-3-methylquinolin-6-yl)methyl)isonicotinamide]",IC50,< 0.1 µM
Cc1cnc2c(C(C)(C)O)cc(Cc3cc(C(=O)NCc4ccc5c(N)nccc5c4)ccn3)cc2c1 [Example 319],IC50,< 0.1 µM
"O=C(NCc1cc2c(Cl)c[nH]c2cc1F)c1ccnc(Cc2ccc3ncc(N4CCC4)cc3c2)c1 [Example 320, 2-((3-(azetidin-1-yl)quinolin-6-yl)methyl)-N-((3-chloro-6-fluoro-1H-indol-5-yl)methyl)isonicotinamide]",IC50,< 0.1 µM
"N-(6-amino-2,4-dimethyl-pyridin-3-ylmethyl)-2-(2-cyano-quinolin-6-ylmethyl)-isonicotinamide [Example 131]",IC50,< 0.1 µM
